These results are taken from paper PMC9469100, “Turning Nonselective Inhibitors of Type I Protein Arginine Methyltransferases into Potent and Selective Inhibitors of Protein Arginine Methyltransferase 4 through a Deconstruction–Reconstruction and Fragment-Growing Approach” (Journal of Medicinal Chemistry, 2022).

One data set deals with PRMT3 (Homo sapiens, UniProt O60678). The data set can be described thus: Radioisotope-based filter-binding (HotSpot) assay, PRMT3. Particulars: radioisotope-based filter assay.
Another data set concerns the target T1, PRMT7 (Homo sapiens, UniProt Q9NVM4).
T1 sequence (Q9NVM4 2-692): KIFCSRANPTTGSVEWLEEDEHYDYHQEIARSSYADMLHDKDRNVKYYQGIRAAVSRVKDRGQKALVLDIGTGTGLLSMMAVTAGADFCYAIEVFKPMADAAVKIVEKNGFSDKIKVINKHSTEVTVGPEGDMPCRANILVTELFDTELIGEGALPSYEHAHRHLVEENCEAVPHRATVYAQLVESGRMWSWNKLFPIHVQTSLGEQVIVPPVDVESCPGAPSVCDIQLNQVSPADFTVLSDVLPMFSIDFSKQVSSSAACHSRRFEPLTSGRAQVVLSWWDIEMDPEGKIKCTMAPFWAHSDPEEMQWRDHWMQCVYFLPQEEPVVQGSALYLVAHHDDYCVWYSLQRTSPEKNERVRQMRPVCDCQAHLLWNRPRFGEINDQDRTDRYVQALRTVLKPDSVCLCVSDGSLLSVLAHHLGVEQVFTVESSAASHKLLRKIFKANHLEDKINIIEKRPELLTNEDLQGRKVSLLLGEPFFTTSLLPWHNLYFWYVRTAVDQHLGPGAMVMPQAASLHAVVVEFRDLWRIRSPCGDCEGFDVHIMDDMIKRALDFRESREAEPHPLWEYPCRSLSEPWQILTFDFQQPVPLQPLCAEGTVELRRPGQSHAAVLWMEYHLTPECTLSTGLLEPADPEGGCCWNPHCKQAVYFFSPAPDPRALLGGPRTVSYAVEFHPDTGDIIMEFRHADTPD
The data set can be described thus: Radioisotope-based filter-binding (HotSpot) assay, PRMT7. Conditions: read-out: IC50 (μM) PRMT7; radioisotope-based filter assay; 5 μM GST-GAR; 1 μM 3H-SAM.

The target of another data set is ΔN(1–60)-PRMT8 (Homo sapiens, UniProt Q9NR22). The data set can be described thus: Radioisotope-based filter-binding (HotSpot) assay, PRMT8.
The target of the next data set is T2, PRMT4 (Homo sapiens, UniProt Q86X55).
T2 sequence (Q86X55 2-608): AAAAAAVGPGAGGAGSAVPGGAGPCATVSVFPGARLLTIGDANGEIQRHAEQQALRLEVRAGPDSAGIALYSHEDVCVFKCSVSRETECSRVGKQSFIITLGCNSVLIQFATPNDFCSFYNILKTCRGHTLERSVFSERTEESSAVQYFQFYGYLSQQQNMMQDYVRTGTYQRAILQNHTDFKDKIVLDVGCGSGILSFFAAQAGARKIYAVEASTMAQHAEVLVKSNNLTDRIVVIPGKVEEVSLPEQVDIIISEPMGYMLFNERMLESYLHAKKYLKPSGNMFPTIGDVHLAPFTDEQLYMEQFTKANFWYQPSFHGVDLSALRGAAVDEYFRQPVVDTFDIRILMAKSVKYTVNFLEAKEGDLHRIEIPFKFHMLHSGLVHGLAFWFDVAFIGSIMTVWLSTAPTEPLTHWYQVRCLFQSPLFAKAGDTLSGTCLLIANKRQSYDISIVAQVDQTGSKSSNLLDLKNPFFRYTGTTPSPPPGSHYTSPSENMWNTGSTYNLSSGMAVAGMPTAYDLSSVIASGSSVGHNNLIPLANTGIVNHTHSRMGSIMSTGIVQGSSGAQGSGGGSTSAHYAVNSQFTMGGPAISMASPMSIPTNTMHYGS
The data set is described as follows: Radioisotope-based filter-binding (HotSpot) assay, PRMT4. Conditions: for LE: ligand efficiency for PRMT4 calculated from IC50 as a surrogate for KD; for selectivity index for PRMT4 vs other PRMTs: PRMT1: ratio IC50 PRMT1 / IC50 PRMT4, rounded to nearest integer; for selectivity index for PRMT4 vs other PRMTs: PRMT3: ratio IC50 PRMT3 / IC50 PRMT4; for selectivity index for PRMT4 vs other PRMTs: PRMT5: ratio IC50 PRMT5 / IC50 PRMT4; for selectivity index for PRMT4 vs other PRMTs: PRMT6: ratio IC50 PRMT6 / IC50 PRMT4; for selectivity index for PRMT4 vs other PRMTs: PRMT7: ratio IC50 PRMT7 / IC50 PRMT4; for selectivity index for PRMT4 vs other PRMTs: PRMT8: ratio IC50 PRMT8 / IC50 PRMT4; for IC50: radioisotope-based filter assay; for SI PRMT1 (Figure 5 heatmap): selectivity index for PRMT4 over PRMT1; for SI PRMT3 (Figure 5 heatmap): selectivity index for PRMT4 over PRMT3; for SI PRMT5 (Figure 5 heatmap): selectivity index for PRMT4 over PRMT5; for SI PRMT6 (Figure 5 heatmap): selectivity index for PRMT4 over PRMT6; for SI PRMT7 (Figure 5 heatmap): selectivity index for PRMT4 over PRMT7; for SI PRMT8 (Figure 5 heatmap): selectivity index for PRMT4 over PRMT8.

The next data set concerns the target PRMT6 (Homo sapiens, UniProt Q96LA8). The data set is described as follows: Radioisotope-based filter-binding (HotSpot) assay, PRMT6. Conditions: radioisotope-based filter assay.
For the next data set, the target named is PRMT5/MEP50 complex (Homo sapiens, UniProt O14744). The data set is described as follows: Radioisotope-based filter-binding (HotSpot) assay, PRMT5.
Data set [1] in a line: Parallel artificial membrane permeability assay (PAMPA). Conditions: phosphate buffer pH 7.4, donor 0.2 mM, 24 h at room temperature. It is filed as in vitro ADME. On the procedure: A donor solution (0.2 mM) was prepared by diluting 20 mM dimethyl sulfoxide (DMSO) compound stock solution using phosphate buffer (pH 7.4, 0.01 M). Filters were coated with 5 μL of a 1% (w/v) dodecane solution of L-α-phosphatidylcholine. Donor solution (150 μL) was added to each well of the filter plate. To each well of the acceptor plate, 300 μL of solution (5% DMSO in phosphate buffer) was added. […] The sandwich was incubated for 24 h at room temperature under gentle shaking. After the incubation time, the sandwich plates were separated, and 250 μL of the acceptor plate was transferred to a UV quartz microtiter plate and measured by UV spectroscopy, using a Multiskan GO microplate spectrophotometer (Thermo Fisher Scientific) at 250–500 nm at a step of 5 nm. Reference solutions (250 μL) were prepared diluting the sample stock solutions to the same concentration as that with no membrane barrier.
For orientation: The PAMPA barrier holds no transporters, so it reflects passive diffusion.

Where [2] appears, read: read-out: IC50 (μM) PRMT3, 5 μM histone H4, 1 μM 3H-SAM.
The mark [3] stands for this setting: read-out: IC50 (μM) PRMT8, 5 μM histone H4, 1 μM 3H-SAM.
Setting [4] is: read-out: IC50 PRMT8 (Figure 5 heatmap).
The mark [5] stands for this setting: read-out: IC50 (μM) PRMT4, 5 μM histone H3, 1 μM 3H-SAM.
Where [6] appears, read: read-out: IC50 PRMT4 (Figure 5 heatmap).
The mark [7] stands for this setting: read-out: IC50 (μM) PRMT6, 5 μM GST-GAR, 1 μM 3H-SAM.
The mark [8] stands for this setting: read-out: IC50 (μM) PRMT5, radioisotope-based filter assay, 5 μM histone H2A, 1 μM 3H-SAM.
Setting [9] is: read-out: IC50 PRMT3 (Figure 5 heatmap).
[10] abbreviates: on increasing the linker between 4-hydroxy-2-naphthoate and guanidine (values equal the ratio to the IC50 of 12c).

Read-outs that look alike come from different tables or passages of the source.

Chain of PRMT3 (O60678 2-531): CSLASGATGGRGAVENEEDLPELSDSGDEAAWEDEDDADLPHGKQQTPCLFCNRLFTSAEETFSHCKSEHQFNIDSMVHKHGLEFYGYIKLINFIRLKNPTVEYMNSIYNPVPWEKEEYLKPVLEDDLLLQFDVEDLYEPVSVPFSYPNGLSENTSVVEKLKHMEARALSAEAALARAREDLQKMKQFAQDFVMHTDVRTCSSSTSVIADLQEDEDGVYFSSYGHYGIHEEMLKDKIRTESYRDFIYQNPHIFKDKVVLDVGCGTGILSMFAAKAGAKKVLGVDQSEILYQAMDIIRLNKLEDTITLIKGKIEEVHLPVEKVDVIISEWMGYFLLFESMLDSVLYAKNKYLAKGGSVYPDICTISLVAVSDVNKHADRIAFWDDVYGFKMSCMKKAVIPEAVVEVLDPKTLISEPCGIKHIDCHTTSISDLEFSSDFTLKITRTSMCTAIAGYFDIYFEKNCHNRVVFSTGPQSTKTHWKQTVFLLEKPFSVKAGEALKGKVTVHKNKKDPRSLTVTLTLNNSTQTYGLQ
Chain of PRMT6 (Q96LA8 2-375): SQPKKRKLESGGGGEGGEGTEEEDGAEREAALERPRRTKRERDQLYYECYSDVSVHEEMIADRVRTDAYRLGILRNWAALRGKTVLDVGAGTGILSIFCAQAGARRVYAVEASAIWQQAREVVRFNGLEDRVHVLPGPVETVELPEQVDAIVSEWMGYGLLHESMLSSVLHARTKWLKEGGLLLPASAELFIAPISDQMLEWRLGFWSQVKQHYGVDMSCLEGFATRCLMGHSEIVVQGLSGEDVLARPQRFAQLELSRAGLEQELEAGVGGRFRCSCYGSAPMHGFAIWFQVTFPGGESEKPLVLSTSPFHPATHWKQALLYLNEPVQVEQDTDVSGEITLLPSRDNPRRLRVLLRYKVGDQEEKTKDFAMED
Chain of ΔN(1–60)-PRMT8 (Q9NR22 61-394, stated change not applied): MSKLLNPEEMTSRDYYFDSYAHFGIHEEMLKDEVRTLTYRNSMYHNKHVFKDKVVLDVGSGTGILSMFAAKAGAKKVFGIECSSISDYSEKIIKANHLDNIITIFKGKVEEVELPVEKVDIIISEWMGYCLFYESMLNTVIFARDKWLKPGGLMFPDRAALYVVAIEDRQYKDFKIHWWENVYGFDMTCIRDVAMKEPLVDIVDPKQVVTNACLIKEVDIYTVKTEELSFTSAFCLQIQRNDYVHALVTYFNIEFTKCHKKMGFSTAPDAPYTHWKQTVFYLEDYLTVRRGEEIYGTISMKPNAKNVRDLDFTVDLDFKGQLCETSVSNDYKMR
Chain of PRMT5/MEP50 complex (O14744 2-637): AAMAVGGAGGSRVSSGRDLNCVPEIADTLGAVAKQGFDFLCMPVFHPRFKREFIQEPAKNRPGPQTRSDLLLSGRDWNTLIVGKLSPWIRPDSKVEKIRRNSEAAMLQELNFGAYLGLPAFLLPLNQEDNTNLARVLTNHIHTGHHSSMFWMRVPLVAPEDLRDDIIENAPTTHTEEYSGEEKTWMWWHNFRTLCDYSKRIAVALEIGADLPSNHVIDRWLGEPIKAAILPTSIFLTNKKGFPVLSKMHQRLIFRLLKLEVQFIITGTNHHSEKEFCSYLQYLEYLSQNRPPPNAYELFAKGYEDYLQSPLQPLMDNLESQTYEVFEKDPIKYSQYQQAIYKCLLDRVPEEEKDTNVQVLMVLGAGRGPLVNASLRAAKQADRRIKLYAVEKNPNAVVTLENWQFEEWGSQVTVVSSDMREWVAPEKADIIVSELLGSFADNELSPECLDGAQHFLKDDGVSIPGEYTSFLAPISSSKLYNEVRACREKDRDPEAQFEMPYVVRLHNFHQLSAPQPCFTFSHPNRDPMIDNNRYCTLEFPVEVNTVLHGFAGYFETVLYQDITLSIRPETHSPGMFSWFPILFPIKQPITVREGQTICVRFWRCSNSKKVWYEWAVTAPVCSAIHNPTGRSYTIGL
Chain of PRMT5/MEP50 complex (Q9BQA1 2-342 partner limits assumed): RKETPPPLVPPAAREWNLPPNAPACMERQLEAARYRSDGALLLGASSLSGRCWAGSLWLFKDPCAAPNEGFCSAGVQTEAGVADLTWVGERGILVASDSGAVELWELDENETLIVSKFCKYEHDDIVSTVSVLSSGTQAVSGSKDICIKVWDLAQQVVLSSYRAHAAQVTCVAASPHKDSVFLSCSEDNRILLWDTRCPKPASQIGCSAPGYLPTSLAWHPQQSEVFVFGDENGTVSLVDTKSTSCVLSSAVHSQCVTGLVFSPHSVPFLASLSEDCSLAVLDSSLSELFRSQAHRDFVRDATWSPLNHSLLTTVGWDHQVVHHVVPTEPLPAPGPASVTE
Protocol for PRMT3: (§1) Then, ^3H-SAM (final concentration 1 μM) was delivered into the reaction mixture to initiate the reaction. After incubation for 60 min at 30 °C, the reaction mixture was delivered to filter paper for detection (as assessed by scintillation). Data were analyzed using Excel and GraphPad Prism 6.0 software (GraphPad Software Inc., San Diego, CA) for IC50 curve fits using sigmoidal dose vs response-variable slope (four parameters) equations.
Protocol for PRMT4: as §1
Protocol for PRMT5/MEP50 complex: as §1
Protocol for PRMT6: as §1
Protocol for PRMT7: as §1
Protocol for ΔN(1–60)-PRMT8: as §1

The term IC50 denotes the point on the concentration scale where inhibition reaches its midpoint. On to `COC(=O)c1cc(O)c2cc(NC(=O)NCCCCCNC(=N)NC[C@H]3O[C@@H](n4cnc5c(N)ncnc54)[C@H](O)[C@@H]3O)ccc2c1` [12c, Methyl 6-(3-(5-(3-(((2R,3S,4R,5R)-5-(6-Amino-9H-purin-9-yl)-3,4-dihydroxytetrahydrofuran-2-yl)methyl)guanidino)pentyl)ureido)-4-hydroxy-2-naphthoate], for which the half-inhibitory concentration (IC50) at PRMT3 (setting [2]) was 21.3 µM. Moreover, the IC50 at PRMT7 was found to be 0.22 µM. In addition, the IC50 on ΔN(1–60)-PRMT8 (setting [3]) was determined as 5.87 µM. The 50% inhibitory concentration (IC50) on ΔN(1–60)-PRMT8 (setting [4]) was 5.87 µM. Also, on PRMT4, the LE is given as 0.19, the “selectivity index for PRMT4 vs other PRMTs: PRMT1” value (“selectivity index … PRMT1” below) is reported as 20, the “selectivity index for PRMT4 vs other PRMTs: PRMT3” value (“selectivity index … PRMT3” for short) turned out to be 51 and the “selectivity index for PRMT4 vs other PRMTs: PRMT5” value (from here on “selectivity index … PRMT5”) was determined as 122. On PRMT4, the “selectivity index for PRMT4 vs other PRMTs: PRMT6” value (from here on “selectivity index … PRMT6”) is over 238, the “selectivity index for PRMT4 vs other PRMTs: PRMT7” value (from here on “selectivity index … PRMT7”) stood at 0.52, the “selectivity index for PRMT4 vs other PRMTs: PRMT8” value (from here on “selectivity index … PRMT8”) was 14 and the “SI PRMT1 (Figure 5 heatmap)” value was 20 fold. Further, on PRMT4, the “SI PRMT3 (Figure 5 heatmap)” value is 51 fold, the “SI PRMT5 (Figure 5 heatmap)” value is given as 122 fold, the “SI PRMT6 (Figure 5 heatmap)” value is given as over 238 fold and the “SI PRMT7 (Figure 5 heatmap)” value worked out at 0.52 fold. Moreover, on PRMT4, the “SI PRMT8 (Figure 5 heatmap)” value is given as 14 fold. Further, the IC50 on PRMT4 (setting [5]) came to 0.42 µM. Further, the IC50 at PRMT4 (setting [6]) turned out to be 0.421 µM. In addition, the IC50 at PRMT6 (setting [7]) was over 100 µM. Further, the IC50 at PRMT5/MEP50 complex was determined as 5.14 µM. Moreover, on PRMT5/MEP50 complex (setting [8]), the IC50 turned out to be 51.4 µM.

For `COC(=O)c1cc(O)c2cc(NC(=O)NCCCCCCCNC(=N)NC[C@H]3O[C@@H](n4cnc5c(N)ncnc54)[C@H](O)[C@@H]3O)ccc2c1` [12e, Methyl 6-(3-(7-(3-(((2R,3S,4R,5R)-5-(6-Amino-9H-purin-9-yl)-3,4-dihydroxytetrahydrofuran-2-yl)methyl)guanidino)heptyl)ureido)-4-hydroxy-2-naphthoate], on PRMT3 (setting [2]), the half-maximal inhibitory concentration (IC50) was 12.4 µM. Further, the IC50 at PRMT3 (setting [9]) was found to be 12.4 µM. At PRMT7, the IC50 was 0.631 µM. Besides, the half-maximal inhibitory concentration (IC50) at ΔN(1–60)-PRMT8 (setting [3]) is 5.84 µM. Besides, at PRMT4, the LE is 0.20, the “selectivity index … PRMT1” value stood at 15, the “selectivity index … PRMT3” value is recorded as 70 and the “selectivity index … PRMT5” value is recorded as 19. At PRMT4, the “selectivity index … PRMT6” value amounted to 202, the “selectivity index … PRMT7” value worked out at 4, the “selectivity index … PRMT8” value is reported as 33 and the “SI PRMT1 (Figure 5 heatmap)” value is 15 fold. On PRMT4, the “SI PRMT3 (Figure 5 heatmap)” value is 70 fold, the “SI PRMT5 (Figure 5 heatmap)” value came to 19 fold, the “SI PRMT6 (Figure 5 heatmap)” value is 202 fold and the “SI PRMT7 (Figure 5 heatmap)” value was 4 fold. The “SI PRMT8 (Figure 5 heatmap)” value at PRMT4 stood at 33 fold. Moreover, the “gain in the inhibitory activity against PRMT4” value on PRMT4 (setting [10]) is on record as 2.4 fold. For the same compound, the 50% inhibitory concentration (IC50) on PRMT4 (setting [5]) worked out at 0.176 µM. In addition, the half-inhibitory concentration (IC50) at PRMT6 (setting [7]) amounted to 35.6 µM. The “gain in the inhibitory activity against PRMT5” value at PRMT5/MEP50 complex (setting [10]) worked out at 15.2 fold. Also, at PRMT5/MEP50 complex (setting [8]), the IC50 is 3.38 µM. Besides, the concentration for half-maximal inhibition (IC50) at PRMT5/MEP50 complex (read-out: IC50 PRMT5 (Figure 5 heatmap), radioisotope-based filter assay) turned out to be 3.38 µM.

As a reminder, the Papp is a coefficient for how fast a substance crosses the barrier. Read a high Papp as fast passage. Regarding `COC(=O)c1cc(O)c2cc(NC(=O)NCCCCNC(=N)NCC[C@H]3O[C@@H](n4cnc5c(N)ncnc54)[C@H](O)[C@@H]3O)ccc2c1` [12f, Methyl 6-(3-(4-(3-(2-((2R,3S,4R,5R)-5-(6-Amino-9H-purin-9-yl)-3,4-dihydroxytetrahydrofuran-2-yl)ethyl)guanidino)butyl)ureido)-4-hydroxy-2-naphthoate], the half-inhibitory concentration (IC50) at PRMT3 (setting [2]) is 10.5 µM. Moreover, the IC50 on PRMT3 (setting [9]) was 10.5 µM. Also, on PRMT7, the half-maximal inhibitory concentration (IC50) was determined as 0.226 µM. For the same compound, the half-maximal inhibitory concentration (IC50) on ΔN(1–60)-PRMT8 (setting [3]) is 6 µM. In addition, the IC50 at ΔN(1–60)-PRMT8 (setting [4]) came to 6 µM. Besides, on PRMT4, the LE is listed as 0.24, the “selectivity index … PRMT1” value is given as 501, the “selectivity index … PRMT3” value was found to be 1082 and the “selectivity index … PRMT5” value was found to be 12. At PRMT4, the “selectivity index … PRMT6” value came out at 2340, the “selectivity index … PRMT7” value is recorded as 23, the “selectivity index … PRMT8” value worked out at 619 and the “SI PRMT1 (Figure 5 heatmap)” value is on record as 501 fold. For the same compound, on PRMT4, the “SI PRMT3 (Figure 5 heatmap)” value is 1,082 fold, the “SI PRMT6 (Figure 5 heatmap)” value is recorded as 2,340 fold, the “SI PRMT7 (Figure 5 heatmap)” value was 23 fold and the “SI PRMT8 (Figure 5 heatmap)” value is recorded as 619 fold. For the same compound, the IC50 at PRMT4 (setting [5]) was 0.0097 µM. In addition, on PRMT4 (setting [6]), the concentration for half-maximal inhibition (IC50) turned out to be 0.01 µM. For the same compound, the half-inhibitory concentration (IC50) at PRMT6 (setting [7]) came to 22.7 µM. Moreover, the concentration for half-maximal inhibition (IC50) on PRMT6 (read-out: IC50 PRMT6 (Figure 5 heatmap)) was 22.7 µM. Further, the IC50 at PRMT5/MEP50 complex (setting [8]) was found to be 0.115 µM. The compound further gave a Papp at 24 h, 0.2 mM in data set [1] of 0.055 ×10⁻⁶ cm/s.
